Source: patent publication US6433008B1, “α-aryl-N-alkylnitrones and pharmaceutical compositions containing the same” (Centaur Pharmaceuticals, Inc., priority 1997, dated 2002)

Key:
[1] = test system: MBP-induced EAE in Lewis rats; assay: Prevention of MBP-induced experimental allergic encephalomyelitis (EAE); assay type: in vivo; conditions: 100 mg/kg b.i.d. oral gavage, day 3 to day 16 post-inoculation
Experimental: Experimental allergic encephalomyelitis (EAE) induced by injection of guinea pig myelin basic protein (MBP) or MBP peptide fragments is reported to be a useful model for MS. See, for example, D. E. McFarlin et al., “Recurrent Experimental Allergic Encephalomyelitis in the Lewis Rat,” The Journal of Immnunology, 113(2): 712-715 (1974).
Female, Lewis rats of 8 weeks of age (180-250 g) were weighed and then given two intradermal injections (0.1 mL each) of 0.4 mg of M. tuberculin in 0.1 mL incomplete Freunds adjuvant and […] of myelin basic protein in 0.1 mL of saline into the base of the tail. Animals were weighed daily and given a clinical score beginning on Day 8, post inoculation, according to the following criteria:
2.5=Hind limb paralysis and front limb weakness
3.0=Hind and front limb paralysis
4.0=Moribund state or death
On day 3, post-inoculation animals were administered b.i.d either a test compound (100 mg/kg) or 1% methylcellulose vehicle by oral gavage up to and including day 16.

[2] = test system: MRL/MpJ Fas^lpr mice; assay: Reduction of cognitive deficits in autoimmune mice (T-maze task); assay type: in vivo; conditions: 100 mg/kg oral gavage daily for 8 to 9 weeks, Fas^lpr mice tested at 4 months of age
Experimental: MRL/MpJfas^lpr (“mutant mice” or “Fas^lpr”) strains of mice have been described as useful models of Lupus due to their autoimmune lymphoproliferative pathology. In particular, the mutant mice show a cognitive deficit at approximately four months of age, which is not observed at two months of age. See, for example, Forster et al., 1988, Behav. Neural Biology, 49, 139-151.
In the experiment, male MRL/MpJ Fas^lPr and normal MRL/MpJ++ mice of 8 weeks of age were weighed and administered 100 mg/kg of the test compound (either α-(2-ethoxyphenyl)-N-tert-butylnitrone or α-(4-ethoxyphenyl)-N-cyclohexylnitrone) or 1% methylcellulose vehicle by oral gavage daily for 8 to 9 weeks. At 4 months of age, the mice were tested for avoidance, discrimination, session criteria and acquisition in a one day T-maze task with a maximum of 25 trials. Criteria was met with four of five trials correct with the last two correct trials being consecutive in avoidance and discrimination.

[3] = test system: rats injected with Aβ(25-35) and ibotenate into the hippocampus; assay: Reduction of cognitive defects due to Aβ-peptide/ibotenate (Morris water maze); assay type: in vivo, Male Sprague-Dawley rats; conditions: 10 mg/kg oral gavage daily, Morris water maze 9-11 days after injection
Experimental: The procedures employed in this example are similar to those described in Dornan et al., NeuroReport 5, 165-168 (1993). Male Sprague-Dawley rats (200-300 g) were weighed and given 10 mg/kg of α-(2-ethoxyphenyl)-N-tert-butylnitrone or 1% methylcellulose by oral gavage. One hour later, the rats were stereotaxically injected into the CA1 region of their hippocampus with 8 nmol of Aβ(25-35) and 6 nmol of ibotenate per side (coordinates from bregma −3.6=AP, ±2.2=ML, −3.0=DV from the top of the dura). Controls were injected with PBS (pH 7.4). All injections were 1.5 μL in volume. The animals receiving PBS were orally dosed with 1% methylcellulose. Oral dosing continued daily until the end of the Morris water maze testing.
Nine to eleven days following injection, animals were tested in a Morris water maze task to measure spatial memory and learning. Animals were given three days of testing with four to six trials per day. The last trial on the fourth day was a probe trial where the platform was removed and time in quadrant and annulae crossings were determined. Following the behavioral testing, animals were perfused with 10% neutral formalin. The brain was post-fixed for 1 week in 10% formalin and then sliced for histological evaluation. Image analysis of cresyl violet staining was used to compare the neuronal loss (lesion volume) in the hippocampus between groups.

Compound	CNS inflammatory deficit in acute EAE animals (clinical score) [1]	further results
CCOc1cc(C=[N+]([O-])C(C)(C)C)ccc1OC [Example 3, α-(3-Ethoxy-4-methoxyphenyl)-N-tert-butylnitrone]	reduced the CNS inflammatory deficit	
CCOc1ccc(C=[N+]([O-])C(C)(C)C)cc1 [Example 4, α-(4-Ethoxyphenyl)-N-tert-butylnitrone]	did not significantly reduce the CNS inflammatory deficit	
COc1cc(C=[N+]([O-])C(C)(C)C)ccc1OCc1ccccc1 [Example 5, α-(4-Benzyloxy-3-methoxyphenyl)-N-tert-butylnitrone]	did not significantly reduce the CNS inflammatory deficit	
CCOc1ccccc1C=[N+]([O-])C(C)(C)C [Example 7, α-(2-Ethoxyphenyl)-N-tert-butylnitrone]	did not significantly reduce the CNS inflammatory deficit	acquisition in T-maze task [2]: reduced acquisition values; avoidance in T-maze task [2]: acquired avoidance skills earlier than untreated mutant mice; Aβ peptide/ibotenate-induced learning deficit [3]: reduced the Aβ peptide/ibotenate-induced learning deficit
CCCC[N+]([O-])=Cc1ccc(OCC)cc1 [Example 10, α-(4-ethoxyphenyl)-N-n-butylnitrone]	did not significantly reduce the CNS inflammatory deficit	
CCOc1ccc(C=[N+]([O-])C2CCCCC2)cc1 [Example 11, α-(4-Ethoxyphenyl)-N-cyclohexylnitrone]	reduced the CNS inflammatory deficit	acquisition in T-maze task [2]: reduced acquisition values; avoidance in T-maze task [2]: acquired avoidance skills earlier than untreated mutant mice
CCOc1ccc(C=[N+]([O-])C2CCCCC2)cc1OC [Example 15, α-(4-Ethoxy-3-methoxyphenyl)-N-cyclohexylnitrone]	did not significantly reduce the CNS inflammatory deficit	
CCOc1cc(C=[N+]([O-])C(C)C)ccc1OC [Example 17, α-(3-Ethoxy-4-methoxyphenyl)-N-isopropyinitrone]	reduced the CNS inflammatory deficit	
CCCCCCOc1ccc(C=[N+]([O-])C2CCCCC2)cc1OCC [Example 22, α-(3-Ethoxy-4-hexyloxyphenyl)-N-cyclohexylnitrone]	reduced the CNS inflammatory deficit	
CCCCCCCCOc1ccc(C=[N+]([O-])C(C)(C)C)c(F)c1 [Example 29, α-(2-Fluoro-4-octyloxyphenyl)-N-tert-butylnitrone]	did not significantly reduce the CNS inflammatory deficit	
CC(C)(C)[N+]([O-])=Cc1ccc(OCc2ccccc2)cc1 [Example 41, α-(4-Benzyloxyphenyl)-N-tert-butylnitrone]	reduced the CNS inflammatory deficit	
[O-][N+](=Cc1ccc(OCc2ccccc2)cc1)C1CCCC1 [Example 42, α-(4-Benzyloxyphenyl)-N-cyclopentylnitrone]	reduced the CNS inflammatory deficit	
CCOc1cc(C=[N+]([O-])C(C)(C)CC(C)(C)C)ccc1OC [Example 45, α-(3-Ethoxy-4-methoxyphenyl)-N-tert-octylnitrone]	reduced the CNS inflammatory deficit	
